Common to all, as to type: biochemical
The target in one test is Btk (Homo sapiens, UniProt Q06187). Kind of test: Btk kinase activity, TR-FRET assay. The method, boiled down:
(§1)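 Enzyme (Btk 0.5 nM; Lck 6 nM) reacted 1 h with inhibitor, ATP at Km and biotin-peptide substrate in pH 7.4 buffer, 10% DMSO. Phosphopeptide detected by Eu-p-Tyr100 antibody plus streptavidin-APC (665/615 nm). IC50 calculated from fitted Ki(app) via ATP/Km correction plus half total enzyme.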
On the technique in general: In TR-FRET formats the signal depends on donor and acceptor labels being close together.

For a further test, the target named is Lck (Homo sapiens, UniProt P06239). Kind of test: Lck kinase activity, TR-FRET assay. The method, boiled down:
as §1

The next test concerns the target EGFR (Homo sapiens, UniProt P00533). As to the kind of experiment: Inhibition of a panel of kinases, in vitro HotSpot kinase assay: EGFR. Here is the method:
(§2) The degree of inhibition of a panel of kinases is determined using the in vitro HotSpot kinase assay (purified enzymes, ^33P-ATP, an appropriate substrate and 1 uM ATP).

A further test has as its target T1, JAK3 (Homo sapiens, UniProt P52333).
T1 sequence (P52333 1-1124): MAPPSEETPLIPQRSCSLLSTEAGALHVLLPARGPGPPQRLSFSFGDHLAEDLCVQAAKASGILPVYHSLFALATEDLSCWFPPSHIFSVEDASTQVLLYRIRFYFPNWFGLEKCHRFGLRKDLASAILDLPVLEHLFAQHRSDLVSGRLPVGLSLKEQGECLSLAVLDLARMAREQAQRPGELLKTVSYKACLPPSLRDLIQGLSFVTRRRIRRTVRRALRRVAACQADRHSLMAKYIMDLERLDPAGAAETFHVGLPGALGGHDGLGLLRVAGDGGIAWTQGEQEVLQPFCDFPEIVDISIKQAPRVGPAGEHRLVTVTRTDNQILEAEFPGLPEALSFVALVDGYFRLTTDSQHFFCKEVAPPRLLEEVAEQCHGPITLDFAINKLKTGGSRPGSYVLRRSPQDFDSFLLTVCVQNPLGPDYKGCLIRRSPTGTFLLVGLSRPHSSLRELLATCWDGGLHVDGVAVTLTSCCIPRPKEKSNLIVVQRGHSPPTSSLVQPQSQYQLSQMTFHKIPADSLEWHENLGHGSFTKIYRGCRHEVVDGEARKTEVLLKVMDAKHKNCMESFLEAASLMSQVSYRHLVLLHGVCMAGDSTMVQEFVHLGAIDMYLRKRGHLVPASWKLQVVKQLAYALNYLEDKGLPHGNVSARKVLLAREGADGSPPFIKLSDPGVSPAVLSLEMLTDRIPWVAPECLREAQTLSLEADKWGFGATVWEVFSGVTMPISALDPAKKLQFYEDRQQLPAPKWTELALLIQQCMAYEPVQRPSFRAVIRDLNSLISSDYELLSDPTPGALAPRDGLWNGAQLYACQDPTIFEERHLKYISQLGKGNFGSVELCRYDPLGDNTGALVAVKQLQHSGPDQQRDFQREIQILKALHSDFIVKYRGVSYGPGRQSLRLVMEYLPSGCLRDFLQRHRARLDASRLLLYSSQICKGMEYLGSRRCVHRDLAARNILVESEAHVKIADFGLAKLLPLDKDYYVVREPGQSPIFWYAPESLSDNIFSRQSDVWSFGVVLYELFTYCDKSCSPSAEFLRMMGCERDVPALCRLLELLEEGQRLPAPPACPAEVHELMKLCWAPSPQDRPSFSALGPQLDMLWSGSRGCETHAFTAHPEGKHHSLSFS
Kind of test: Inhibition of a panel of kinases, in vitro HotSpot kinase assay: JAK3. Here is the method:
as §2

Where two headings read alike, the source gives them in different places. A value given as a limit tells only on which side of the number the result lay.

Chain of Btk (Q06187 whole entry): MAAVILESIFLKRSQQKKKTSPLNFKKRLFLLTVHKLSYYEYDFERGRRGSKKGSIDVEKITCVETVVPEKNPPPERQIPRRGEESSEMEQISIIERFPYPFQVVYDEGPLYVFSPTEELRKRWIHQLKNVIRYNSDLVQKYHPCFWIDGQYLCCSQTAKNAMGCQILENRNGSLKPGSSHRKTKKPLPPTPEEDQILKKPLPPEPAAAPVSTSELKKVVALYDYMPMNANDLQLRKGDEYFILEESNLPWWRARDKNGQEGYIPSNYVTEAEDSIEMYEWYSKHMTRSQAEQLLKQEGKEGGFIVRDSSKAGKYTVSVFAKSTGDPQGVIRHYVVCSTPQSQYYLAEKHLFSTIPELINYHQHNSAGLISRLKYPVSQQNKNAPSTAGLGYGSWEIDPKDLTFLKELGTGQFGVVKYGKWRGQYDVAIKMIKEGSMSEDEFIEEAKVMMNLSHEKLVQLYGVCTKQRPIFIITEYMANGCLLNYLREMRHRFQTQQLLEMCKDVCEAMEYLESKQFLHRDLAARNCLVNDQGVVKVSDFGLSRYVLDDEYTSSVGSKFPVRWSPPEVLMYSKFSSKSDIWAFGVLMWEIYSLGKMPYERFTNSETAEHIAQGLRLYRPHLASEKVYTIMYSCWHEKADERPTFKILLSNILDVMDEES
Chain of EGFR (P00533 25-1210): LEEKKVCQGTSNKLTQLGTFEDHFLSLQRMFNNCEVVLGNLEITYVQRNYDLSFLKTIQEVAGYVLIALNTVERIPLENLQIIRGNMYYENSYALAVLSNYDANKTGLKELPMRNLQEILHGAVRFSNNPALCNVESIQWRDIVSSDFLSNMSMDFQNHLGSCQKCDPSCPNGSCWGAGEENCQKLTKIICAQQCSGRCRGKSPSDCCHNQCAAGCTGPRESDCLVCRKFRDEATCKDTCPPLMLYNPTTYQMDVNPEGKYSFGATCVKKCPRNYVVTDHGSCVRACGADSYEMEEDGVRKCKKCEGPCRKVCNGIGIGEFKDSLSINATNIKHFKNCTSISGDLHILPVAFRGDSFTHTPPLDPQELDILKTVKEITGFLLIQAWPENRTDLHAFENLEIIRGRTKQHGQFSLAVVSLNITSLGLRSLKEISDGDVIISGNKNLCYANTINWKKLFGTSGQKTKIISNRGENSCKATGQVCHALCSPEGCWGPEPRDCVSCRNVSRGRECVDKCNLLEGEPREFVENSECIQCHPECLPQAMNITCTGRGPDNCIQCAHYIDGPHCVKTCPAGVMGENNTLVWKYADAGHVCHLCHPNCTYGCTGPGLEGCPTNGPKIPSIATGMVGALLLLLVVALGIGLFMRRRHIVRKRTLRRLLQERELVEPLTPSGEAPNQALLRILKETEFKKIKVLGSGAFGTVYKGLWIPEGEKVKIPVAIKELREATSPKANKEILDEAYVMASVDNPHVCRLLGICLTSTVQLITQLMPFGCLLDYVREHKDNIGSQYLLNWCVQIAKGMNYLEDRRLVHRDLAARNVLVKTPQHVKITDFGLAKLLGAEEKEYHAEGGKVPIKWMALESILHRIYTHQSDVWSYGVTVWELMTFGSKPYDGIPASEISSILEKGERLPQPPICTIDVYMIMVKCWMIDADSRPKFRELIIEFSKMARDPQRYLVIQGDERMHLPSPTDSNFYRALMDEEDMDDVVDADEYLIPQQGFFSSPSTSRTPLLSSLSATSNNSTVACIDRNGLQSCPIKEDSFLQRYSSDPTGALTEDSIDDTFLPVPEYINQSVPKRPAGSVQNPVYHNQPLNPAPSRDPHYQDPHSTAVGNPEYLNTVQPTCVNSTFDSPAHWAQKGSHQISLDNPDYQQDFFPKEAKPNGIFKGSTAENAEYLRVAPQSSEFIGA
Chain of Lck (P06239 whole entry, species assumed): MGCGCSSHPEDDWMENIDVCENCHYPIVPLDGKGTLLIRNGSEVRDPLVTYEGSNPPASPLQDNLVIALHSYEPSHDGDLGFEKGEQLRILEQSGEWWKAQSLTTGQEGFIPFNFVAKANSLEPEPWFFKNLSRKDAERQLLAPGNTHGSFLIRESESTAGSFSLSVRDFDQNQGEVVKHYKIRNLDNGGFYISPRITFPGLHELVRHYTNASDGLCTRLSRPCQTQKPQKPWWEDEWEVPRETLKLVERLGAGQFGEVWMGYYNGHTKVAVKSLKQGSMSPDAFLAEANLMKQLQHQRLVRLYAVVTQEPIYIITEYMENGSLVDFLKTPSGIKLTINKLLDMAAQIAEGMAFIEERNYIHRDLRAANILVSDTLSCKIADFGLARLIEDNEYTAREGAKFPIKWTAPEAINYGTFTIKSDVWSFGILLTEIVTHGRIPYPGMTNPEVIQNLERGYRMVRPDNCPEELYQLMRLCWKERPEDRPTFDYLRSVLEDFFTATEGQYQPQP

For `C=CC(=O)N1CCC[C@@H](Nc2n[nH]c3nccc(Oc4ccc(-c5nc6ccccc6o5)cc4)c23)C1` [compound 194, 1-[(3R)-3-({4-[4-(1,3-benzoxazol-2-yl)phenoxy]-1H-pyrazolo[3,4-b]pyridin-3-yl}amino)piperidin-1-yl]prop-2-en-1-one], the IC50 at Btk (read-out: Btk (IC50)) is less than 100 nM; on Lck (read-out: LCK (IC50)), 1000 to 10000 nM; on EGFR, 1000 to 10000 nM; against JAK3, 100 to 1000 nM.
Consider `C=CC(=O)N1CCC[C@@H](Nc2n[nH]c3nccc(Oc4ccc(C(=O)Nc5nc6ccccc6s5)cc4)c23)C1` [compound 162], for which the IC50 on Btk (read-out: Btk (IC50)) is less than 100 nM; at Lck (read-out: LCK (IC50)), 100 to 1000 nM; at EGFR it was less than 100 nM; against JAK3 it was less than 100 nM.
For the molecule `Cc1ccnc(NC(=O)c2ccc(Oc3ccnc4[nH]nc(NC5CCN(C(=O)C6(C)CCN(C)CC6)CC5)c34)cc2)c1` [compound 284, 4-(3-(1-(1,4-dimethylpiperidine-4-carbonyl)piperidin-4-ylamino)-1H-pyrazolo[3,4-b]pyridin-4-yloxy)-N-(4-methylpyridin-2-yl)benzamide], the IC50 on Btk (read-out: Btk (IC50)) was 100 to 1000 nM; at Lck (read-out: LCK (IC50)) it was 100 to 1000 nM; against EGFR, more than 10000 nM; at JAK3 it was more than 10000 nM.
With `C=CC(=O)N1CCC[C@@H](Nc2n[nH]c3nccc(Oc4ccc(C(=O)Nc5nnc(C)s5)cc4)c23)C1` [compound 187], the IC50 was 100 to 1000 nM on Btk (read-out: Btk (IC50)), more than 10000 nM at Lck (read-out: LCK (IC50)), 100 to 1000 nM against EGFR and less than 100 nM against JAK3.
Consider `Cc1ccnc(NC(=O)c2ccc(Oc3ccnc4[nH]nc(N[C@@H]5CCCN(C(=O)C6CCOCC6)C5)c34)cc2)c1` [compound 105, N-(4-methylpyridin-2-yl)-4-[(3-{[(3R)-1-(oxane-4-carbonyl)piperidin-3-yl]amino}-1H-pyrazolo[3,4-b]pyridin-4-yl)oxy]benzamide], for which the 50% inhibitory concentration (IC50) on Btk (read-out: Btk (IC50)) was less than 100 nM; on Lck (read-out: LCK (IC50)), 1000 to 10000 nM; at EGFR, more than 10000 nM; on JAK3 it was more than 10000 nM.
As for `C=CC(=O)N1CCC[C@@H](Nc2n[nH]c3nccc(O[C@H]4CC[C@H](C(=O)Nc5ncc(C)s5)CC4)c23)C1` [compound 144], the IC50 at Btk (read-out: Btk (IC50)) is 100 to 1000 nM; on Lck (read-out: LCK (IC50)), more than 10000 nM; at EGFR, 1000 to 10000 nM; against JAK3 it was 100 to 1000 nM.
`C=CC(=O)N1CCC[C@@H](Nc2n[nH]c3nccc(Oc4ccc(C(=O)Nc5nc6c(s5)CCN(C)C6)cc4)c23)C1` [compound 145]: the IC50 on Btk (read-out: Btk (IC50)) is less than 100 nM; on Lck (read-out: LCK (IC50)), more than 10000 nM; against EGFR it was more than 10000 nM; against JAK3, less than 100 nM.
On to `O=C(Nc1cc(C(F)(F)F)ccn1)c1ccc(Oc2ccnc3[nH]nc(C4CCCN(C(=O)C5CC5)C4)c23)cc1` (stereo not shown) [compound 218, 4-{[3-(1-cyclopropanecarbonylpiperidin-3-yl)-1H-pyrazolo[3,4-b]pyridin-4-yl]oxy}-N-[4-(trifluoromethyl)pyridin-2-yl]benzamide], for which the half-inhibitory concentration (IC50) on Btk (read-out: Btk (IC50)) is 100 to 1000 nM; at Lck (read-out: LCK (IC50)), 1000 to 10000 nM; at EGFR it was 1000 to 10000 nM; against JAK3 it was more than 10000 nM.
Turning to `Cc1cc(Oc2ccnc3[nH]nc(N[C@@H]4CCCN(C(=O)/C=C/CN(C)C5CC5)C4)c23)ccc1Oc1ccccc1` [compound 156], the IC50 was less than 100 nM on Btk (read-out: Btk (IC50)), 100 to 1000 nM on Lck (read-out: LCK (IC50)), 100 to 1000 nM against EGFR and more than 10000 nM against JAK3.
On to `C=CC(=O)N1CCC[C@@H](Nc2n[nH]c3nccc(Oc4ccc(NC(=O)Nc5cc(C(F)(F)F)ccn5)cc4)c23)C1` [compound 201, 1-{4-[(3-{[(3R)-1-(prop-2-enoyl)piperidin-3-yl]amino}-1H-pyrazolo[3,4-b]pyridin-4-yl)oxy]phenyl}-3-[4-(trifluoromethyl)pyridin-2-yl]urea], for which the IC50 on Btk (read-out: Btk (IC50)), at Lck (read-out: LCK (IC50)), against EGFR and on JAK3 was less than 100 nM in each case.
As for `Cc1ccnc(NC(=O)c2ccc(Oc3ccnc4[nH]nc(N[C@@H]5CCCN(C(=O)Oc6ccccc6)C5)c34)cc2)c1` [compound 93, phenyl (3R)-3-[(4-{4-[(4-methylpyridin-2-yl)carbamoyl]phenoxy}-1H-pyrazolo[3,4-b]pyridin-3-yl)amino]piperidine-1-carboxylate], the IC50 on Btk was 100 to 1000 nM; against Lck, 1000 to 10000 nM; on EGFR it was more than 10000 nM; on JAK3, more than 10000 nM.
Turning to `Cc1ccnc(NC(=O)c2ccc(Oc3ccnc4[nH]nc(N[C@@H]5CCCN(C(=O)C(C)(C)C#N)C5)c34)cc2)c1` [compound 102, 4-[(3-{[(3R)-1-(2-cyano-2,2-dimethylacetyl)piperidin-3-yl]amino}-1H-pyrazolo[3,4-b]pyridin-4-yl)oxy]-N-(4-methylpyridin-2-yl)benzamide], the IC50 on Btk (read-out: Btk (IC50)) is less than 100 nM; on Lck (read-out: LCK (IC50)), 100 to 1000 nM; against EGFR it was more than 10000 nM; on JAK3 it was more than 10000 nM.
For the molecule `Cc1cc(NC(=O)c2cccc(Oc3ccnc4[nH]nc(N[C@H]5CCN(C(=O)c6ccc(F)cc6)C5)c34)c2)ccc1C(C)C` [compound 128, 3-[(3-{[(3S)-1-(4-fluorobenzoyl)pyrrolidin-3-yl]amino}-1H-pyrazolo[3,4-b]pyridin-4-yl)oxy]-N-[3-methyl-4-(propan-2-yl)phenyl]benzamide], the IC50 on Btk (read-out: Btk (IC50)) was 100 to 1000 nM; on Lck (read-out: LCK (IC50)), less than 100 nM; on EGFR it was more than 10000 nM; at JAK3, more than 10000 nM.
`CN(C)CCCC(=O)N[C@@H]1CCCN(c2n[nH]c3nccc(Oc4ccc(C(=O)Nc5cc(C(F)(F)F)ccn5)cc4)c23)C1` [compound 230, 4-({3-[(3R)-3-[4-(dimethylamino)butanamido]piperidin-1-yl]-1H-pyrazolo[3,4-b]pyridin-4-yl}oxy)-N-[4-(trifluoromethyl)pyridin-2-yl]benzamide]: the IC50 is 100 to 1000 nM at Btk (read-out: Btk (IC50)), more than 10000 nM on Lck (read-out: LCK (IC50)), more than 10000 nM at EGFR and more than 10000 nM against JAK3.
Turning to `CC#CC(=O)N1CC[C@@H](Nc2n[nH]c3nccc(Oc4ccc(C(=O)Nc5ncc(C)s5)cc4)c23)C1` [compound 181], the IC50 on Btk (read-out: Btk (IC50)) was less than 100 nM; on Lck (read-out: LCK (IC50)), 1000 to 10000 nM; on EGFR, 1000 to 10000 nM; at JAK3 it was more than 10000 nM.
`Cc1cnc(NC(=O)c2ccc(Oc3ccnc4[nH]nc(N[C@@H]5CCCN(C(=O)/C=C/CN(C)C)C5)c34)cc2)s1` [compound 198, 4-[(3-{[(3R)-1-[(2E)-4-(dimethylamino)but-2-enoyl]piperidin-3-yl]amino}-1H-pyrazolo[3,4-b]pyridin-4-yl)oxy]-N-(5-methyl-1,3-thiazol-2-yl)benzamide]: the concentration for half-maximal inhibition (IC50) at Btk (read-out: Btk (IC50)) is less than 100 nM; at Lck (read-out: LCK (IC50)), 100 to 1000 nM; against EGFR it was 1000 to 10000 nM; against JAK3, more than 10000 nM.
In the same order, the values of `C=CC(=O)N1CCC[C@@H](Nc2n[nH]c3nccc(Oc4ccc(C(=O)Nc5cc(C)n(C)n5)cc4)c23)C1` [compound 159] are less than 100 nM, more than 10000 nM, 1000 to 10000 nM and 100 to 1000 nM.
Regarding `Cc1ccnc(NC(=O)c2ccc(Oc3ccnc4[nH]nc(N[C@@H]5CCCN(C(=O)C(=O)N(C)C)C5)c34)cc2)c1` [compound 98, 4-[(3-{[(3R)-1-[(dimethylcarbamoyl)carbonyl]piperidin-3-yl]amino}-1H-pyrazolo[3,4-b]pyridin-4-yl)oxy]-N-(4-methylpyridin-2-yl)benzamide], the IC50 at Btk (read-out: Btk (IC50)) is less than 100 nM; at Lck (read-out: LCK (IC50)) it was 100 to 1000 nM; at EGFR, more than 10000 nM; against JAK3, more than 10000 nM.
On to `CN(C)C/C=C/C(=O)N(C)[C@H]1CC[C@@H](Nc2n[nH]c3nccc(Oc4cccc(Oc5ccccc5)c4)c23)CC1` [compound 21, (2E)-4-(dimethylamino)-N-methyl-N-[(1s,4s)-4-{[4-(3-phenoxyphenoxy)-1H-pyrazolo[3,4-b]pyridin-3-yl]amino}cyclohexyl]but-2-enamide], for which the IC50 was less than 100 nM at Btk (read-out: Btk (IC50)), 100 to 1000 nM on Lck (read-out: LCK (IC50)), 100 to 1000 nM at EGFR and 100 to 1000 nM on JAK3.

For orientation: IC50 means the concentration that gives 50% inhibition.

The values above are taken from patent publication US9580416B2, “Inhibitors of Bruton's tyrosine kinase” (PHARMACYCLICS LLC, priority 2014, dated 2017).
